Experimental data published in ChEMBL document CHEMBL1201862, “PubChem BioAssay data set” (2004).
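Method: 48-hour compound exposure of cells in 96-well plates, five concentrations, linear interpolation of endpoints. GI50 is the concentration that inhibits growth by half.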 Activity calls are given as the source filed them. Cut-off read from the data, not from the text of the source: active = GI50 up to about 1.1 µM and inactive = higher.

Assays:
Assay in all cases: NCI-60 cell line screen, 48 h
NCI-H23 = system: NCI-H23
OVCAR-5 = system: OVCAR-5
SK-MEL-2 = system: SK-MEL-2
UACC-257 = system: UACC-257
SNB-75 = system: SNB-75
HOP-92 = system: HOP-92
RXF 393 = system: RXF 393
SF-539 = system: SF-539
SNB-19 = system: SNB-19
UO-31 = system: UO-31
EKVX = system: EKVX
BT-549 = system: BT-549
KM12 = system: KM12
SF-268 = system: SF-268
RPMI-8226 = system: RPMI-8226
K562 = system: K562
M14 = system: M14
OVCAR-4 = system: OVCAR-4
PC-3 = system: PC-3
COLO 205 = system: COLO 205

Structure (SMILES)	GI50 (NCI-H23)	GI50 (OVCAR-5)	GI50 (SK-MEL-2)	GI50 (UACC-257)	GI50 (SNB-75)	GI50 (HOP-92)	GI50 (RXF 393)	GI50 (SF-539)	GI50 (SNB-19)	GI50 (UO-31)	GI50 (EKVX)	GI50 (BT-549)	GI50 (KM12)	GI50 (SF-268)	GI50 (RPMI-8226)	GI50 (K562)	GI50 (M14)	GI50 (OVCAR-4)	GI50 (PC-3)	GI50 (COLO 205)
Cc1nc(N)nc2ccccc12	> 100 µM (inactive)	> 100 µM (inactive)	> 100 µM (inactive)	> 100 µM (inactive)	60 µM (inactive)	> 100 µM (inactive)	> 100 µM (inactive)	> 100 µM (inactive)	> 100 µM (inactive)	> 100 µM (inactive)	44.8 µM (inactive)	> 100 µM (inactive)	> 100 µM (inactive)	> 100 µM (inactive)	> 100 µM (inactive)	> 100 µM (inactive)	> 100 µM (inactive)	> 100 µM (inactive)	> 100 µM (inactive)	–
O=C1NC2(CN3CCC2CC3)C(=O)N1CN(Cc1ccccc1)c1ccccc1 (stereo not drawn)	44.4 µM (inactive)	> 100 µM (inactive)	> 100 µM (inactive)	46 µM (inactive)	> 100 µM (inactive)	> 100 µM (inactive)	27 µM (inactive)	93.8 µM (inactive)	> 100 µM (inactive)	25.1 µM (inactive)	> 100 µM (inactive)	> 100 µM (inactive)	> 100 µM (inactive)	37.6 µM (inactive)	28.2 µM (inactive)	–	33.7 µM (inactive)	> 100 µM (inactive)	> 100 µM (inactive)	92.7 µM (inactive)
COc1cc2c(c(OC)c1OC)-c1ccc(OC)c(=O)cc1C(NC(=O)COc1ccccc1)CC2 (stereo not drawn)	< 0.01 µM (active)	0.3 µM (active)	< 0.01 µM (active)	< 0.029 µM (active)	< 0.01 µM (active)	< 0.01 µM (active)	0.0184 µM (active)	< 0.01 µM (active)	< 0.01 µM (active)	0.0402 µM (active)	0.731 µM (active)	< 0.01 µM (active)	< 0.01 µM (active)	< 0.01 µM (active)	< 0.01 µM (active)	< 0.0208 µM (active)	< 0.01 µM (active)	3.11 µM (inactive)	< 0.01 µM (active)	< 0.01 µM (active)
N#CCCN(CCC#N)c1ccc(/C=C2\N=C(c3ccccc3)N(c3ccc(F)cc3)C2=O)cc1	–	> 100 µM (inactive)	> 100 µM (inactive)	> 100 µM (inactive)	> 100 µM (inactive)	> 100 µM (inactive)	> 100 µM (inactive)	> 100 µM (inactive)	> 100 µM (inactive)	> 100 µM (inactive)	> 100 µM (inactive)	> 100 µM (inactive)	> 100 µM (inactive)	> 100 µM (inactive)	> 100 µM (inactive)	> 100 µM (inactive)	> 100 µM (inactive)	> 100 µM (inactive)	> 100 µM (inactive)	> 100 µM (inactive)
CC1(C)C(=O)C=CC2(C)C1CC(O)C1(C)C2CCC2(C)C(c3ccoc3)OC(=O)C3OC321 (stereo not drawn)	12.1 µM (inactive)	32.3 µM (inactive)	11.8 µM (inactive)	> 10 µM (inactive)	15.9 µM (inactive)	16.4 µM (inactive)	15 µM (inactive)	> 10 µM (inactive)	18.9 µM (inactive)	11.4 µM (inactive)	12.5 µM (inactive)	18.7 µM (inactive)	14.9 µM (inactive)	–	18.5 µM (inactive)	24.8 µM (inactive)	32 µM (inactive)	15 µM (inactive)	31.6 µM (inactive)	21.5 µM (inactive)
Oc1c(C2=NNC(c3ccc(Cl)cc3Cl)C2)ccc2ccccc12 (stereo not drawn)	68.1 µM (inactive)	42.7 µM (inactive)	35.8 µM (inactive)	42.3 µM (inactive)	39.9 µM (inactive)	31.7 µM (inactive)	37.9 µM (inactive)	30.5 µM (inactive)	–	54.3 µM (inactive)	–	69.2 µM (inactive)	26.2 µM (inactive)	33 µM (inactive)	32 µM (inactive)	23.1 µM (inactive)	26.5 µM (inactive)	58.6 µM (inactive)	31.6 µM (inactive)	32 µM (inactive)
O=C1N/C(=N/N=C/C(O)C(O)C(O)C(O)CO)N/C1=C\c1cccs1 (stereo not drawn)	> 100 µM (inactive)	> 100 µM (inactive)	> 100 µM (inactive)	> 100 µM (inactive)	> 100 µM (inactive)	> 100 µM (inactive)	> 100 µM (inactive)	> 100 µM (inactive)	> 100 µM (inactive)	–	87.1 µM (inactive)	> 100 µM (inactive)	> 100 µM (inactive)	> 100 µM (inactive)	> 100 µM (inactive)	> 100 µM (inactive)	> 100 µM (inactive)	> 100 µM (inactive)	> 100 µM (inactive)	> 100 µM (inactive)
Cc1ccc(C)n1-c1ccccc1C1C=Cn2c3c1c(=O)c(OC(C)C)c(OC(C)C)c-3n[nH]c2=O (stereo not drawn)	53.8 µM (inactive)	> 100 µM (inactive)	20 µM (inactive)	32.6 µM (inactive)	25.4 µM (inactive)	84.7 µM (inactive)	23 µM (inactive)	58.3 µM (inactive)	76.2 µM (inactive)	64.3 µM (inactive)	28.4 µM (inactive)	32.7 µM (inactive)	19.9 µM (inactive)	59.2 µM (inactive)	8.3 µM (inactive)	12.2 µM (inactive)	25.1 µM (inactive)	38.9 µM (inactive)	10.3 µM (inactive)	13.1 µM (inactive)
COc1cc(NC(C)=O)ccc1C(=O)NN1C(=O)C(Cl)C1c1ccco1 (stereo not drawn)	> 100 µM (inactive)	> 100 µM (inactive)	> 100 µM (inactive)	–	> 100 µM (inactive)	> 100 µM (inactive)	> 100 µM (inactive)	> 100 µM (inactive)	> 100 µM (inactive)	> 100 µM (inactive)	> 100 µM (inactive)	> 100 µM (inactive)	> 100 µM (inactive)	> 100 µM (inactive)	> 100 µM (inactive)	> 100 µM (inactive)	> 100 µM (inactive)	> 100 µM (inactive)	> 100 µM (inactive)	61.8 µM (inactive)
CC12CCC([C@H](C(O)C3CCCCC3)C1=O)C2(C)C (stereo partly drawn)	> 100 µM (inactive)	> 100 µM (inactive)	> 100 µM (inactive)	> 100 µM (inactive)	> 100 µM (inactive)	> 100 µM (inactive)	75.2 µM (inactive)	> 100 µM (inactive)	> 100 µM (inactive)	> 100 µM (inactive)	> 100 µM (inactive)	> 100 µM (inactive)	> 100 µM (inactive)	> 100 µM (inactive)	49.4 µM (inactive)	63 µM (inactive)	> 100 µM (inactive)	> 100 µM (inactive)	> 100 µM (inactive)	> 100 µM (inactive)
CC1(C)CCC2=C(O1)/C(=N\Nc1ccccc1)c1ccccc1C2=O	34.8 µM (inactive)	31.3 µM (inactive)	16 µM (inactive)	18.7 µM (inactive)	–	24 µM (inactive)	16.6 µM (inactive)	26.5 µM (inactive)	40.4 µM (inactive)	17.8 µM (inactive)	20.9 µM (inactive)	35.4 µM (inactive)	32.8 µM (inactive)	48.3 µM (inactive)	31.4 µM (inactive)	39.9 µM (inactive)	31.5 µM (inactive)	31.2 µM (inactive)	24.1 µM (inactive)	31.8 µM (inactive)
COc1ccc2nc3cc(Cl)ccc3c(NCCNCCCNC(=O)c3cc(-c4ccccc4)nc4ccccc34)c2c1	> 100 µM (inactive)	> 100 µM (inactive)	–	> 100 µM (inactive)	> 100 µM (inactive)	> 100 µM (inactive)	> 100 µM (inactive)	> 100 µM (inactive)	> 100 µM (inactive)	> 100 µM (inactive)	> 100 µM (inactive)	> 100 µM (inactive)	70.8 µM (inactive)	> 100 µM (inactive)	> 100 µM (inactive)	70.8 µM (inactive)	> 100 µM (inactive)	> 100 µM (inactive)	56.6 µM (inactive)	> 100 µM (inactive)
COc1ccc2c(c1)CCC(CN1CCN(CCOC(c3ccc(F)cc3)c3ccc(F)cc3)CC1)C2O (stereo not drawn)	14.5 µM (inactive)	15.2 µM (inactive)	15 µM (inactive)	12.9 µM (inactive)	16.8 µM (inactive)	12.2 µM (inactive)	12.3 µM (inactive)	30.3 µM (inactive)	17.2 µM (inactive)	–	11.6 µM (inactive)	14.4 µM (inactive)	19.1 µM (inactive)	13.9 µM (inactive)	6.75 µM (inactive)	4.51 µM (inactive)	12.2 µM (inactive)	14.2 µM (inactive)	11.7 µM (inactive)	4.59 µM (inactive)
CC(C(=O)O)c1ccc(-c2ccccc2)c(F)c1 (stereo not drawn) [FLURBIPROFEN]	–	> 100 µM (inactive)	> 100 µM (inactive)	> 100 µM (inactive)	> 100 µM (inactive)	> 100 µM (inactive)	> 100 µM (inactive)	> 100 µM (inactive)	> 100 µM (inactive)	> 100 µM (inactive)	> 100 µM (inactive)	> 100 µM (inactive)	> 100 µM (inactive)	> 100 µM (inactive)	> 100 µM (inactive)	> 100 µM (inactive)	> 100 µM (inactive)	> 100 µM (inactive)	> 100 µM (inactive)	> 100 µM (inactive)
